Data from the supplement of paper PMC13380429.

Legend:
Conditions in all cases: 72 h
[1] = tested on: Caco-2; experiment: drug sensitivity score (DSS) for viability; higher = more toxic; extreme values may be limits of the assay
[2] = tested on: U2OS; experiment: as above
[3] = tested on: HepG2; experiment: as above
[4] = tested on: Calu-3; experiment: as above
[5] = tested on: Vero E6; experiment: as above
[6] = tested on: Caco-2; experiment: relative viability EC50 (midpoint between 100% and the lowest measured viability); higher = less toxic
[7] = tested on: U2OS; experiment: as above
[8] = tested on: HepG2; experiment: as above
[9] = tested on: Calu-3; experiment: as above
[10] = tested on: Vero E6; experiment: as above
[11] = tested on: Caco-2; experiment: cell viability relative to DMSO; higher = less toxic
[12] = tested on: U2OS; experiment: as above
[13] = tested on: HepG2; experiment: as above
[14] = tested on: Calu-3; experiment: as above
[15] = tested on: Vero E6; experiment: as above

Structure (SMILES)	drug sensitivity score [1]	drug sensitivity score [2]	drug sensitivity score [3]	drug sensitivity score [4]	drug sensitivity score [5]	relative viability EC50 [6] [µM]	relative viability EC50 [7] [µM]	relative viability EC50 [8] [µM]	relative viability EC50 [9] [µM]	relative viability EC50 [10] [µM]	cell viability ([11]; 1 nM) [%]	cell viability ([11]; 10 nM) [%]	cell viability ([11]; 100 nM) [%]	cell viability ([11]; 1000 nM) [%]	cell viability ([11]; 10000 nM) [%]	cell viability ([12]; 1 nM) [%]	cell viability ([12]; 10 nM) [%]	cell viability ([12]; 100 nM) [%]	cell viability ([12]; 1000 nM) [%]	cell viability ([12]; 10000 nM) [%]	cell viability ([13]; 1 nM) [%]	cell viability ([13]; 10 nM) [%]	cell viability ([13]; 100 nM) [%]	cell viability ([13]; 1000 nM) [%]	cell viability ([13]; 10000 nM) [%]	cell viability ([14]; 1 nM) [%]	cell viability ([14]; 10 nM) [%]	cell viability ([14]; 100 nM) [%]	cell viability ([14]; 1000 nM) [%]	cell viability ([14]; 10000 nM) [%]	cell viability ([15]; 1 nM) [%]	cell viability ([15]; 10 nM) [%]	cell viability ([15]; 100 nM) [%]	cell viability ([15]; 1000 nM) [%]	cell viability ([15]; 10000 nM) [%]
Nc1ccc(S(=O)(=O)c2ccc(N)cc2)cc1 [dapsone]	0	0	0	0	0	> 10	> 10	> 10	> 10	> 10	106	95.6	104	100	91.7	99.3	97.1	95.8	96.2	100	112	107	93.2	106	96.6	104	98.6	90.4	106	101	98.5	106	105	106	100
Cc1oc(-c2ccccc2)nc1CCC(=O)c1ccc(CC2SC(=O)NC2=O)cc1 (stereo not given) [darglitazone]	0	0	0	0	4.8	> 10	> 10	> 10	> 10	> 10	102	95.5	96.2	91.9	91.2	109	98.7	102	102	103	96.9	95	95.8	96.3	95.4	97.4	110	114	111	119	96	90.8	83.3	76	83.3
CC(C)Nc1cccnc1N1CCN(C(=O)c2cc3cc(NS(C)(=O)=O)ccc3[nH]2)CC1 [delavirdine]	0	0	0	0	0	> 10	> 10	> 10	> 10	> 10	99.4	96.4	101	101	94.2	101	101	102	98.5	102	98.8	108	99.2	115	107	100	93	104	90.5	105	92.2	99	87.9	95.3	105
Clc1ccc2c(c1)CCc1cccnc1C2=C1CCNCC1 [desloratadine]	0	0	0	0	0	> 10	> 10	> 10	> 10	> 10	91.2	93.5	94.7	90.2	102	100	98.9	97.3	104	95.6	113	90.7	97.2	110	93.1	99.9	100	110	104	106	104	102	104	106	99.9
Cc1onc(-c2c(Cl)cccc2Cl)c1C(=O)N[C@@H]1C(=O)N2[C@@H]1SC(C)(C)[C@@H]2C(=O)O [dicloxacillin]	0	0	0	0	0	> 10	> 10	> 10	> 10	> 10	100	99.6	93.3	98.2	101	95.6	99.9	93.7	97.9	94.9	97.5	98.1	106	100	110	98.2	84.7	96	97.6	98.9	99.4	97.7	102	94.1	96.3
C[C@H]1O[C@@H](O[C@H]2[C@@H](O)C[C@H](O[C@H]3[C@@H](O)C[C@H](O[C@H]4CC[C@@]5(C)[C@H](CC[C@@H]6[C@@H]5C[C@@H](O)[C@]5(C)[C@@H](C7=CC(=O)OC7)CC[C@]65O)C4)O[C@@H]3C)O[C@@H]2C)C[C@H](O)[C@@H]1O [digoxin]	18.9	20.1	18.9	14	30.2	0.114	0.182	0.177	0.449	0.031	97.7	99.5	65.7	21	20.3	97.3	96.1	82.7	4.6	4.8	107	105	72	16.4	8.7	101	102	96.4	26.5	12.8	95.1	94.9	5.8	1.2	1.3
C[N+]1(C)CCC(=C(c2ccccc2)c2ccccc2)CC1 [diphemanil]	0	0	0	0	0	> 10	> 10	> 10	> 10	> 10	97.2	100	95.7	101	93.6	101	99.7	95.5	97.7	97.4	113	98.1	108	97.6	110	95.3	107	110	96.1	102	105	108	103	99.9	102
O=c1c(-c2ccccc2)c1-c1ccccc1 [diphencyprone]	0	0.5	0.2	0	0	> 10	> 10	> 10	> 10	> 10	110	103	114	106	97.2	98.9	99.5	103	98	84.2	95.2	91.4	95.7	89.8	86	105	97.6	104	111	122	101	104	99.6	99.1	93.5
COCCN(C(=O)c1cc(OC)c(OC)c(OC)c1)c1nc(-c2ccccc2)cs1 [eact]	0.1	0	0	0.4	0	> 10	> 10	> 10	> 10	> 10	103	84.3	96.2	88.9	90.9	102	97	100	96.1	106	107	95.6	104	104	92.5	107	96.2	94.1	92.8	85.1	94.4	104	90.4	96.6	97.5
CCC(=O)O[C@H]1[C@H](O[C@@H]2[C@@H](C)[C@H](O[C@H]3C[C@@](C)(OC)[C@@H](O)[C@H](C)O3)[C@@H](C)C(=O)O[C@H](CC)[C@@](C)(O)[C@H](O)[C@@H](C)C(=O)[C@H](C)C[C@@]2(C)O)O[C@H](C)C[C@@H]1N(C)C [erythromycin-estolate]	0	0	0	0	0	> 10	> 10	> 10	> 10	> 10	96.2	102	97.5	99.4	97	98.7	98.4	101	104	104	99.7	104	104	93.2	100	91.3	96	91.4	88.6	99	96.9	95.9	101	96.4	102
C#C[C@]1(OC(C)=O)CC[C@H]2[C@@H]3CCC4=C[C@@H](OC(C)=O)CC[C@@H]4[C@H]3CC[C@@]21C [ethynodiol-diacetate]	0	0	0	0	0	> 10	> 10	> 10	> 10	> 10	88.6	96.9	92.4	100	88.8	99	98.7	99.6	97.6	92.4	104	104	97.3	103	107	99.4	132	103	99.6	102	98.6	103	104	98.6	108
NCC(CC(=O)O)c1ccccc1 (stereo not given) [fenigam]	0	0	0	0	0	> 10	> 10	> 10	> 10	> 10	93.3	105	101	87.8	112	93.5	91.1	97.3	95.4	98.3	95.1	97.2	92.4	106	110	95.4	97.6	100	97.4	97.4	100	95.8	97.6	101	111
Nc1nc(=O)n([C@@H]2O[C@H](CO)[C@@H](O)[C@@H]2F)cc1I [fiacitabine]	0.2	0	0.2	0	0	> 10	> 10	> 10	> 10	> 10	93.8	99.5	90.1	84.3	93.2	99.8	104	93.6	98.6	100	104	91.4	96.1	106	83.6	93.1	102	102	109	96	98.9	97.6	98.9	100	96.7
